Data published in article PMC11551755, “Structure-based discovery of first inhibitors targeting the helicase activity of human PIF1” (Nucleic Acids Research, 2024).

Biological target: T1, hPIF1HD V258L (Homo sapiens, UniProt Q9H611, V258L)
T1 construct: The human PIF1 helicase domain and mutants (hPIF1HD, residues 206–620); hexa-histidine tag (N, cleaved yes); made in house; host or cells: ArcticExpress BL21(DE3) E. coli (Agilent Technologies)
T1 sequence (Q9H611 206-620 V258L): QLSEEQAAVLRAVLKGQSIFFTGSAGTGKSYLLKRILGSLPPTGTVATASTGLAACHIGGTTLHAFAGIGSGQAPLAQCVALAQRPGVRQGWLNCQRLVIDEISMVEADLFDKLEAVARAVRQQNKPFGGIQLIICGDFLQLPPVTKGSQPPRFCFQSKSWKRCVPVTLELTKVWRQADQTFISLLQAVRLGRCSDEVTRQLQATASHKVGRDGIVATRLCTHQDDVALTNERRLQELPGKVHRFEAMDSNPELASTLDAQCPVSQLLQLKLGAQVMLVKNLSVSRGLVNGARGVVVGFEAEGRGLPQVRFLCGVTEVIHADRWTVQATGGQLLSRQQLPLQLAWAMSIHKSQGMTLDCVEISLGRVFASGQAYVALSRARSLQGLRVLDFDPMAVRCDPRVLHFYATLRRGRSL
Assay: ssDNA d(T)55 binding assay (EMSA), hPIF1HD V258L variant
Conditions: 0.25 nM d(T)55, 2 nM protein, 5 mM AMP-PNP, 0.0078–2 mM compound; read-out: IC50 for inhibition of ssDNA binding, V258L
Method: DNA binding of hPIF1HD was assayed using a ^32P-5′ end-labelled oligo d(T)55 substrate (0.25 nM), under the same buffer conditions described for helicase assays, but with AMP-PNP instead of ATP. Reaction products were resolved on 5% poly-acrylamide gels (29:1 acrylamide:bis-acrylamide) using 0.25× TBE running buffer ([19],[28]). Gels were processed and reaction products quantified by phosphorimaging and IC50 values determined as described above.
In hPIF1HD/AMP-PNP/1 there are no direct hydrogen bonds between amino acid side chains and 1, however, Val 258 from domain 1A is making van der Waals interaction (<3.8 Å) with the amide group at one end of the molecule (Figure 1). From the structural data, we reasoned that substitution of the Val 258 with alanine (V258A) would increase the size of the binding pocket and its accessibility to ligand, while substitution with leucine (V258L) would decrease pocket size and possibly instigate a clash with Lys 556, disrupting interactions with compound 1 or derivatives. Accordingly, we purified hPIF1HD V258A and V258L variant forms and analysed ssDNA d(T)55 binding in the presence of SMIs, using EMSA as above.
Supplementary Figure 12. hPIF1HD variants V258A and V258L ssDNA binding IC50 determination by EMSA with selected SMIs. All binding reactions were assembled under helicase reaction conditions but with 0.25 nM radiolabelled oligo d(T)55, and 5 mM AMP-PNP. (A) DNA binding activity of wild type and mutant proteins was assessed by EMSA without inhibitors. […] 1D: Wild type (WT), V258A and V258L, not determined. 2: WT, 224 ± […]; V258A, 103 ± 31 µM; V258L, 304 ± 88 µM. 5: WT, 198 ± 54 µM; V258A, 79.2 ± 27 µM; V258L, 414 ± 45 µM. 6: WT, 722 ± 194 µM; V258A, 295 ± 116 µM; V258L, 1010 ± 282 µM. 10: WT, 224 ±59 µM; V258A, 152 ± 42 µM; V258L, 378 ± 99 µM. 11: WT, 284 ± 110 µM; V258A, 151 ± 51 µM; V258L, 551 ± 215 µM.

Row | Structure (SMILES) | IC50 [µM]
1 | CC(=O)Nc1ccc(-c2csc(N)n2)cc1-c1ccc(C)cc1 [Compound 10] | 378 ± 99
2 | CC(=O)c1ccc(-c2csc(N)n2)cc1 [Compound 2] | 304 ± 88
3 | CC(=O)Nc1ccc(-c2csc(N)n2)cc1C1=CCNCC1 [Compound 11] | 551 ± 215
4 | N#Cc1ccc(-c2csc(N)n2)cc1 [Compound 5] | 414 ± 45
5 | Nc1nc(-c2ccc(C(=O)c3ccccc3)cc2)cs1 [Compound 6] | 1010 ± 282
